Publication PMC4153677, “Probing the Activity Modification Space of the Cysteine Peptidase Cathepsin K with Novel Allosteric Modifiers” (PLoS ONE, 2014)
Like-named read-outs stand apart in the source and are kept apart here.

Target: T1, Recombinant human cathepsin K (Homo sapiens, UniProt P43235)
T1 construct: made in house
T1 sequence (P43235 115-329): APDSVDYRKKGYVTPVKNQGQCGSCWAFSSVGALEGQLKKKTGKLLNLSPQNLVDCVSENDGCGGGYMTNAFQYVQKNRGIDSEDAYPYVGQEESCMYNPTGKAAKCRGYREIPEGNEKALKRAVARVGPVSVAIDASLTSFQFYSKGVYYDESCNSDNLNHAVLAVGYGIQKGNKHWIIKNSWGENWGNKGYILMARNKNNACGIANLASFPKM
Assay: Collagenolytic assays (calf skin collagen, SDS-PAGE)
Type: biochemical
Parameters: key to collagen: qualitative value: qualitative values of 1 and 0 were used to signify inhibition and lack thereof, respectively; qualitative values of 1 and 0 were used to signify inhibition and lack thereof, respectively; a value of -1 was used to describe the concentration-dependent roles of glycosaminoglycans
Experimental: The use of synthetic substrates is practical for the determination of the mechanisms of modification. […] Therefore, all modifiers were also tested with two macromolecular substrates, calf skin collagen and azocasein. The collagenolytic activity was tested quantitatively by following the fragmentation of the characteristic type I collagen pattern into smaller products on SDS-PAGE after incubation of the samples with cathepsin K in the presence and absence of modifiers.
Soluble calf skin collagen (Worthington Biochemical Corporation, USA) was diluted in 100 mM sodium acetate buffer pH 5.50 containing 1 mM EDTA and 5 mM DTT to a final concentration of 0.5 mg/ml. Experiments were started by addition of cathepsin K (final enzyme concentration 0.6 µM) to the reaction mixture containing collagen and increasing concentrations of modifier. All assays were performed at 28°C with shaking on an Eppendorf Thermomixer Comfort. Samples were incubated for 2 hours and the reactions then blocked by addition of E-64 to a final concentration of 1 µM. 10 µg of digested collagen were analyzed by SDS-PAGE on 8% polyacrylamide gels and protein bands visualized by Coomassie Brilliant Blue R-250 staining.

OC(c1cc(-c2ccc(C(F)(F)F)cc2)nc(C(F)(F)F)c1)C1CCCCN1 (stereo not shown) [Compound 2, Piperidin-2-yl-[2-(trifluoromethyl)-6-[4-(trifluoromethyl)phenyl]pyridin-4-yl] methanol]
Effect on degradation of calf skin collagen (SDS-PAGE, increasing concentrations of modifier): concentration-dependent inhibitory effect | collagen: qualitative value (activity modification matrix): 1 | IC50 (degradation of calf skin collagen, read-out: IC 50 (estimated)): ~500 µM | IC50 (substrate calf skin collagen 0.5 mg/ml, 0.6 µM cathepsin K, 2 hours 28°C, pH 5.50, estimated, read-out: IC 50): 500 µM
